# Assay results reported in US20260125679A1, “FINE-TUNING INFLAMMATION BY ALTERING 3'UTR LENGTH” (priority 2023, published 2026).
# Numbered stars: 1 amine (or outer) side, 2 acyl side, 3 side chain; on linkers, the order of the positions; unused ones are H or OH. Bridge positions count the residues as written; N and C are the ends. Square brackets hold non-standard residues; d marks the D form. Peptide text beside a SMILES is read from it. I, II: the chains in the order shown. Actinocin(9to1) = Cc1c2oc3c(C)ccc(C(=O)[*:1])c3nc-2c(C(=O)[*:2])c(N)c1=O; NMeV = CN[C@H](C(=O)O)C(C)C; Sar = CNCC(=O)O
# Tests used:
# [1] = tested on: dsRNA in neurons, hESCs, HEK-293T and HeLa cells; assay: J2 staining of dsRNA after RNA polymerase inhibitor treatment; type: cell-based, human
# Procedure: (§1) We transiently treated neurons with different RNA polymerase inhibitors for 12 hours prior to J2 staining to determine if RNA polymerase II (POLII) or mitochondrial RNA polymerase (POLRMT) give rise to neuronal dsRNA. The following inhibitors were used: actinomycin D (ActD), which inhibits both POLII and POLRMT (16); α-amanitin, a POLII inhibitor; and IMT1, a POLRMT-specific inhibitor (25). […] By quantifying depletion of dsRNA upon single treatments with α-amanitin or IMT1 treatment, we calculated the proportional contribution of POLII- or POLRMT-derived dsRNAs, respectively. We applied this analysis to various cell types. In HeLa cells, roughly 90% of dsRNA was derived from POLRMT. This is consistent with a prior study that concluded that roughly 95% of dsRNA in HeLa cells is located in mitochondria (16), validating our analysis. In both hESCs and HEK-293T cells, POLRMT and POLII contribute to roughly 70% and 30% of dsRNA, respectively. Conversely, in neurons, POLRMT and POLII transcripts contribute to 40% and 60% of dsRNA, respectively. […] In summary, mtRNA is the major component of dsRNA in HeLa, HEK-293T, and hESCs. However, in neurons, POLII-derived transcripts, presumably mRNAs, contribute to the bulk of the neuronal dsRNA load.
# (§2) For treatment with various polymerase inhibitors, cells were treated for 12 hours prior to harvest with either ActD (10 ug/mL, Sigma), α-amanitin (25 ug/mL, Sigma), or IMT1 (1 uM, MedChemExpress).
# Cells grown on glass coverslips were washed with PBS and fixed using 4% paraformaldehyde for 20 minutes at 4° C. Samples were then blocked and permeabilized in PBTG (PBS, 1% BSA, 0.1% Triton-X100, 10% goat serum) for 1 hour at room temperature. Primary antibodies were diluted in PBTG and stained overnight at 4° C. Secondary antibodies (either goat anti-mouse IgG Alexa Fluor 488 or goat anti-rabbit IgG Alexa Fluor 594, Invitrogen (A11001 and A11012)) and DAPI were diluted in PBTG and stained for 1 hour at room temperature prior to mounting. Samples were imaged on an LSM-710 confocal microscope.
# Images were processed and analyzed using ImageJ. MFI of individual cells was determined by tracing cell outlines. MFI data depicts 12 individual cells taken from at least 3 independent images. For colocalization analysis, the JACop plugin was used to measure MFI of 4 independent images.
# [2] = tested on: neurons and hESCs; assay: Specificity of RNA polymerase inhibitors (mRNA and mtRNA levels); type: cell-based, human; conditions: 12 hours treatment
# Procedure: as §1, §2
# RNA was extracted directly from cell samples using the Direct-zol RNA Miniprep kit (Zymo Research). cDNA conversion was completed using the ProtoScript II First Strand cDNA Synthesis kit (New England Biolabs). PowerUp SYBR Green (Thermo Fisher Scientific) and QuantStudio 3 Real-Time PCR System were used for qRT-PCR, and all primers are listed in Table S1. RPS11 or 18S rRNA were used as a housekeeping gene for normalization.
Structure (SMILES),proportion of dsRNA derived from POLII (depletion of dsRNA upon α-amanitin) ([1]; hESCs and HEK-293T cells) [%],proportion of dsRNA derived from POLII (depletion of dsRNA upon α-amanitin) ([1]; neurons) [%],mRNA levels [2],"dsRNA signal (J2) ([1]; neurons and hESCs, 12 hours treatment)",mtRNA levels [2],proportion of dsRNA derived from POLRMT (depletion of dsRNA upon IMT1) ([1]; HeLa cells),proportion of dsRNA derived from POLRMT (depletion of dsRNA upon IMT1) ([1]; hESCs and HEK-293T cells),proportion of dsRNA derived from POLRMT (depletion of dsRNA upon IMT1) ([1]; neurons) [%]
CC[C@H](C)[C@@H]1NC(=O)CNC(=O)[C@@H]2Cc3c([nH]c4cc(O)ccc34)[S+]([O-])C[C@@H](NC(=O)CNC1=O)C(=O)N[C@@H](CC(N)=O)C(=O)N1C[C@H](O)C[C@H]1C(=O)N[C@@H]([C@@H](C)[C@@H](O)CO)C(=O)N2 (stereo in doubt) [α-amanitin],~30,60,down-regulated,–,–,–,–,–
"Cc1c2oc3c(C)ccc(C(=O)N[C@@H]4C(=O)N[C@H](C(C)C)C(=O)N5CCC[C@H]5C(=O)N(C)CC(=O)N(C)[C@@H](C(C)C)C(=O)O[C@@H]4C)c3nc-2c(C(=O)N[C@@H]2C(=O)N[C@H](C(C)C)C(=O)N3CCC[C@H]3C(=O)N(C)CC(=O)N(C)[C@@H](C(C)C)C(=O)O[C@@H]2C)c(N)c1=O [ActD, actinomycin D] (I: T[dV]P[Sar][NMeV] / II: T[dV]P[Sar][NMeV]; ester I:1-I:C, II:1-II:C; linker I:N-II:N via Actinocin(9to1))",–,–,down-regulated,abrogate almost all dsRNA signal,down-regulated,–,–,–
Cc1ccccc1-c1cc(=O)oc2cc(OC(C)C(=O)N(C)C)ccc12 (stereo not shown) [IMT1],–,–,–,–,down-regulated,roughly 90%,roughly 70%,40
